# Like-named read-outs stand apart in the source and are kept apart here.
# Legend:
# [1] = tested on: HCV replicon (5-2 Luc replicon-comprising cells); test: HCV replicon assay (luciferase reporter); format: cell-based, Hepatitis C virus; conditions: first symbol of the Replicon/Western cell, 5-2 Luc replicon cells, 24 hours with compound, read-out: Replicon (IC50, 50% reduction in luciferase emission)
# Experimental: The inhibitory activity of certain exemplary compounds of the invention was confirmed using an HCV replicon assay. The HCV replicon can include such features as the HCV IRES, the HCV 3′ untranslated region, selected HCV genes encoding HCV polypeptides, selectable markers, and a reporter gene such as luciferase, GEP, etc. In the assay, actively dividing 5-2 Luc replicon-comprising cells were seeded at a density of between about 5,000 and 7,500 cells/well onto 96 well plates (about 90 μl of cells per well) and incubated at 37° C. and 5% CO2 for 24 hours. Then, the test compound (in a volume of about 10 μl) was added at various concentrations to each well and the cells were incubated for an additional 24 hours before luciferase assay. The cells were harvested, and HCV replication or translation was monitored via a reporter assay, e.g., a luciferase reporter assay. The media was aspirated from each cell and Bright-Glo ([…].) luciferase assay reagents were added to each well according to the manufacturer's instructions. In this assay, the amount of test compound that yielded a 50% reduction in luciferase emission (IC50) was determined.
# [2] = cytotoxicity assay (Cell Titer Glo); format: cell-based; conditions: human; 48 hr with compound, ATP-dependent Cell Titer Glo; read-out: IC50 (cytotoxicity, number of viable cells)
# Experimental: Compounds 1, 3, 7, 9, 11, 13, 17, 19, 21, 27, 29, 31, 33, 35, 37, 39, 47, 49, 51, 57 and 69 were tested in a cytotoxicity assay with liver cells including an HCV replicon (5-2 Luc cells, 9-13 cells or Huh-7 cells). In the assay, cells were seeded onto 96-well plates (approx. 7500 cells/well in a volume of 90 μl) and grown for 24 hr at 37° C. On day 2, various concentrations of test compound (in a volume of 10 μl) were added to the wells and the cells were grown for an additional 48 hr at 37° C. On day 4, an ATP-dependent R-Luciferase assay (Cell Titer Glo assay) was performed to determine the number of viable cells.
Molecule,IC50 [1],IC50 ([1]; Hepatitis C virus),IC50 at 48 h [2]
"O=C(Nc1ccncc1-c1cc(-c2cccc(Br)n2)no1)C(Cl)Cl [Compound 97, 2,2-Dichloro-N-[3-[3-[(6-bromo)-2-pyridyl]-5-isoxazolyl]-(4-pyridyl)] Acetamide]",> 10 µM,,
"2,2-Dichloro-N-[5-[3-[2-chloro-6-[4-(N-acetyl)piperazino]phenyl])-5-isoxazoly]-(3-pyridyl)] Acetamide [Compound 61]",< 10 µM,,
"O=C(Nc1ccnc(-c2cc(-c3c(N4CCOCC4)cccc3C(F)(F)F)no2)c1)C(Cl)Cl [Compound 31, 2,2-Dichloro-N-[2-[3-(2-morpholino-6-trifluoromethylphenyl)-5-isoxazolyl]-(4-pyridyl)] Acetamide]",,< 10 µM,≥ 10 µM
"2,2-Dichloro-N-[5-[3-[2-chloro-6-[4-(N-ethylcarboxamido)piperazino]phenyl])-5-isoxazolyl]-(3-pyridyl)] Acetamide [Compound 81]",< 10 µM,,
"O=C(Nc1cncc(-c2cc(-c3c(Cl)cccc3N3CCNCC3)no2)c1)C(Cl)Cl [Compound 73, 2,2-Dichloro-N-[5-[.3-(2-chloro-6-piperazinophenyl)-5-isoxazolyl]-(3-pyridyl)] Acetamide]",< 10 µM,,
CCN1CCN(c2cccc(Cl)c2-c2cc(-c3cncc(NC(=O)C(Cl)Cl)c3)on2)CC1 [Compound 63],,< 10 µM,
"O=C(Nc1cccc(-c2cc(-c3c(Cl)ccnc3Cl)no2)c1)C(Cl)Cl [Compound 93, 2,2-Dichloro-N-[3-[3-[(2,4-dichloro)-3-pyridy]-5-isoxazolyl]phenyl] Acetamide]",< 10 µM,,
COc1cccc(F)c1-c1cc(-c2cc(NC(=O)C(Cl)Cl)ccn2)on1 [Compound 39],,,≥ 10 µM
O=C(Nc1cc[n+]([O-])c(-c2cc(-c3c(Cl)cccc3Cl)no2)c1)C(Cl)Cl [Compound 43],,> 10 µM,
"Cc1cccnc1-c1cc(-c2cccc(NC(=O)C(Cl)Cl)c2)on1 [Compound 33, 2,2-Dichloro-N-[3-[3-(3-methyl-2-pyridyl)-5-isoxazolyl]phenyl] Acetamide]",,< 10 µM,≥ 10 µM
"2,2-Dichloro-N-[5-[3-[2-chloro-6-[4-(N-2-pyridyl)pipera phenyl])5-isoxazolyl]-(3-pyridyl)] Acetamide [Compound 69]",< 10 µM,,
"CCNC(=O)Oc1cccc(Cl)c1-c1cc(-c2cncc(NC(=O)C(Cl)Cl)c2)on1 [Compound 79, 2,2-Dichloro-N-[5-[3-(2-chloro-6-N-ethylcarbamoyloxyphenyl)-5-isoxazolyl]-(3-pyridyl)] Acetamide]",< 10 µM,,
"O=C(Nc1cncc(-c2cc(-c3c(O)cccc3Cl)no2)c1)C(Cl)Cl [Compound 77, 2,2-Dichloro-N-[5-[3-(2-chloro-6-hydroxyphenyl)-5-isoxazolyl]-(3-pyridyl)] Acetamide]",< 10 µM,,
"O=C(Nc1cncc(-c2cc(-c3c(F)cccc3C(F)(F)F)no2)c1)C(Cl)Cl [Compound 37, 2,2-Dichloro-N-[5-[3-(2-fluoro-6-trifluoromethylphenyl)-5-isoxazolyl]-(3-pyridyl)] Acetamide]",,> 10 µM,≥ 10 µM
"CCOC(=O)c1cccnc1-c1cc(-c2cccc(NC(=O)C(Cl)Cl)c2)on1 [Compound 45, 2,2-Dichloro-N-[3-[3-[(3-ethoxycarbonyl)-2-pyridyl]-5-isoxazolyl]phenyl] Acetamide]",,> 10 µM,
"O=C(Nc1cncc(-c2cc(-c3ccccc3C(F)(F)F)no2)c1)C(Cl)Cl [Compound 67, 2,2-Dichloro-N-[5-[3-(2-trifluoromethylphenyl)-5-isoxazolyl]-(3-pyridyl)] Acetamide]",> 10 µM,,
"CC(C)(C)[Si](C)(C)Oc1cccc(Cl)c1-c1cc(-c2cc(NC(=O)C(Cl)Cl)ccn2)on1 [Compound 83, 2,2-Dichloro-N-[2-[3-(2-chloro-6-tert-butyldimethylsilyloxyphenyl)-5-isoxazolyl]-(4-pyridyl)] Acetamide]",< 10 µM,,
"O=C(Nc1cncc(-c2cc(-c3cccc(Cl)c3Cl)no2)c1)C(Cl)Cl [Compound 29, 2,2-Dichloro-N-[5-[3-(2,3-dichloroplhenyl)-5-isoxazolyl]-(3-pyridyl)] Acetamide]",,< 10 µM,≥ 10 µM
"O=C(Nc1ccnc(-c2cc(-c3c(O)cccc3Cl)no2)c1)C(Cl)Cl [Compound 89, 2,2-Dichloro-N-[2-[3-(2-chloro-6-hydioxyphenyl)-5-isoxazolyl]-(4-pyridyl)] Acetamide]",< 10 µM,,
"CN(C)c1nccc(Cl)c1-c1cc(-c2cccc(NC(=O)C(Cl)Cl)c2)on1 [Compound 91, 2,2-Dichloro-N-[3-[3-[(4-chloro-2-dimethylamino)-3-pyridyl]-5-isoxazolyl]phenyl] Acetamide]",< 10 µM,,
"Cc1cccc(C)c1-c1cc(-c2cc(NC(=O)C(Cl)Cl)ccn2)on1 [Compound 19, 2,2-Dichloro-N-[2-[3-(2,6-dimethylphenyl)-5-isoxazolyl]-(4-pyridyl)] Acetamide]",,< 10 µM,> 5 µM
COCOc1cccc(Cl)c1-c1cc(-c2cc(NC(=O)C(Cl)Cl)ccn2)on1 [Compound 87],< 10 µM,,
"CC(C)(C)[Si](C)(C)Oc1cccc(Cl)c1-c1cc(-c2cncc(NC(=O)C(Cl)Cl)c2)on1 [Compound 75, 2,2-Dichloro-N-[5-[3-(2-chloro-6-tert-butyldimethylsilyloxyphenyl)-5-isoxazolyl]-(3-pyridyl)] Acetamide]",< 10 µM,,
"O=C(Nc1ccnc(-c2cc(-c3c(F)cccc3Cl)no2)c1)C(Cl)Cl [Compound 1, 2,2-Dichloro-N-[2-[3-(2-chloro-6-fluorophenyl)-5-isoxazolyl]-(4-pyridyl)] Acetamide]",,< 10 µM,≥ 10 µM
O=C(Nc1ccnc(-c2cc(-c3c(F)cccc3S(=O)(=O)NN3CCOCC3)no2)c1)C(Cl)Cl [Compound 47],< 10 µM,,
"O=C(Nc1cccc(-c2cc(-c3c(Cl)cccc3Cl)no2)n1)C(Cl)Cl [Compound 35, 2,2-Dichloro-N[6-[3-(2,6-dichlorophenyl)-5-isoxazolyl]-(2-pyridyl)] Acetamide]",,> 10 µM,≥ 10 µM
"2,2-Dichloro-N-[5-[3-[2-chloro-6-[4-(N-tert-butoxycarbonyl)piperazino]phenyl])-5-isoxazolyl]-(3-pyridyl)] Acetamide [Compound 71]",< 10 µM,,
CCCNC(=O)Oc1cccc(Cl)c1-c1cc(-c2cc(NC(=O)C(Cl)Cl)ccn2)on1 [Compound 85],< 10 µM,,
"CN(C(=O)C(Cl)Cl)c1ccnc(-c2cc(-c3c(Cl)cccc3Cl)no2)c1 [Compound 51, 2,2-Dichloro-N-[2-[3-(2,6-dichlorophenyl)-5-isoxazolyl]-(4-pyridyl)]-N-methyl Acetamide]",,< 10 µM,≥ 10 µM
"O=C(Nc1ccc(-c2cc(-c3c(Cl)cccc3Cl)no2)cn1)C(Cl)Cl [Compound 65, 2,2-Dichloro-N-[5-[3-(2,6-dichlorophenyl)-5-isoxazolyl]-(2-pyridyl)] Acetamide]",> 10 µM,,
